Test results as given in US20070071677A1 (priority 2003, published 2007).
Ends that are not written are not given here.

Test system: cell lines described in Example 3 (293T, HeLa, CT26, MCF-7)
Experiment: Cytotoxicity of LMWP peptides, MTT colorimetric assay
Assay type: cell-based, human, murine
Conditions: FIG. 5; TAT at 5.0 mM and 10.0 mM
Description: Cytotoxicity of the LMWP peptides and TDSP5-gelonin conjugates were examined using the cell lines described in Example 3. In brief, cells grown to 75% confluency were incubated with various concentrations of LMWP peptides, TAT peptide, TDSP5-gelonin conjugate, or TAT-gelonin conjugates. Cell proliferation was measured over 3 days, and cytotoxicity was determined using a colorimetric assay, which was performed by removing the cell culture medium and replacing it with PBS containing 5 mg/ml of 3-(4,5-dimethylthiazol-2-yl)-2,5-diphenyltetrazolium bromide (MTT). The absorbance of the cell culture medium following MTT addition was measured at 540 nm, and the survival ratio was determined by the ratio of the absorbance of sample-treated cells to that of control cells.

Question: How did the “cell cytotoxicity (in words)” value turn out when PRRRRSSRRP [TDSP3] was run?
Answer: Its value is “little or no toxicity”.

Question: How did the “cell cytotoxicity (in words)” value turn out when VSRRRRRRGGRRRR [TDSP5] was run?
Answer: Its value is “little or no toxicity”.

Question: Which “cell cytotoxicity (in words)” value does the source give for PRRRRR [TDSP2] here?
Answer: Its value is “little or no toxicity”.

Question: How did the “cell cytotoxicity (in words)” value turn out when ASRRRRRGGRRRR [TDSP4] was run?
Answer: The value was “little or no toxicity”.
